Results on 13 compounds are retold here after patent publication US8987195B2 (priority 2012, dated 2015).

Where two headings read alike, the source gives them in different places.

In test [1] the test system is HCV genotype 1b replicon. The experiment in a line: HCV replicon assay, genotype 1b replicon EC50. The format is cell-based, Hepatitis C virus. The conditions noted are these: Hepatitis C virus, genotype 1b replicon, read-out: EC50 [gt-1b]. The essentials: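 Stable neomycin phosphotransferase-encoding replicon cell lines, kept under G418 selection beforehand, were plated with a compound dilution series without G418 and incubated 24-48 hours. Replicon RNA was then quantified, or luciferase activity read. EC50 was calculated as percent of DMSO control by four-parameter fit.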

For test [2], the target named is HCV NS3/4A protease genotype 1b (Hepatitis C virus genotype 1b, UniProt P26663). The experiment in a line: HCV NS3/4A protease time-resolved fluorescence (TRF) assay, Ki against genotype 1b. The format is biochemical. The conditions noted are these: IC50 [gt-1b] (nM), NS3/4A genotype 1b, enzyme 0.2 nM. The essentials: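 Time-resolved fluorescence readout of NS3/4A cleavage of 25 nM europium-labelled peptide over 2.5 h at room temperature, enzyme levels set for signal/background 10–30 (0.2, 0.4, 0.025 nM for 1b, A156T, 3a). Ki by IC50=Ki(1+[S]/KM).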

On to `Cc1nc2ccccc2c2c1O[C@]1(CC2)C[C@H]2C(=O)N[C@]3(C(=O)NS(=O)(=O)C4(C)CC4)C[C@H]3/C=C\CCCCC[C@H](NC(=O)OC3(C(F)(F)F)CCCC3)C(=O)N2C1` [Example 326, 1-(trifluoromethyl)cyclopentyl [(2R,6S,12Z,13aS,14aR,16aS)-5′-methyl-14a-{[(1-methylcyclopropyl)sulfonyl]carbamoyl}-5,16-dioxo-1,1′,2′,5,6,7,8,9,10,11,13a,14,14a,15,16,16a-hexadecahydrospiro[cyclopropa[e]pyrrolo[1,2-a][1,4]diazacyclopentadecine-2,3′-pyrano[2,3-c]quinolin]-6-yl]carbamate], for which the EC50 in test [1] was 1.11 nM. For the same compound, in test [2], half-maximal inhibition (IC50) was put at 0.023 nM.
Regarding `Cc1nc2cc(F)ccc2c2c1O[C@]1(CC2)C[C@H]2C(=O)N[C@]3(C(=O)NS(=O)(=O)C4(C)CC4)C[C@H]3/C=C\CCCCC[C@H](NC(=O)OC3CCCC3)C(=O)N2C1` [Example 327, cyclopentyl [(2R,6S,12Z,13aS,14aR,16aS)-8′-fluoro-5′-methyl-14a-{[(1-methylcyclopropyl)sulfonyl]carbamoyl}-5,16-dioxo-1,1′,2′,5,6,7,8,9,10,11,13a,14,14a,15,16,16a-hexadecahydrospiro[cyclopropa[e]pyrrolo[1,2-a][1,4]diazacyclopentadecine-2,3′-pyrano[2,3-c]quinolin]-6-yl]carbamate], the EC50 in test [1] (K+ salt) was 3.61 nM. Further, in test [2] (K+ salt), the IC50 was 0.026 nM.
For the compound `Cc1nc2cc(F)ccc2c2c1O[C@]1(CC2)C[C@H]2C(=O)N[C@]3(C(=O)NS(=O)(=O)C4(C)CC4)C[C@H]3/C=C\CCCCC[C@H](NC(=O)OC(C)(C)C(F)(F)F)C(=O)N2C1` [Example 328, 1,1,1-trifluoro-2-methylpropan-2-yl [(2R, 6S,12Z,13aS,14aR,16aS)-8′-fluoro-5′-methyl-14a-{[(1-methylcyclopropyl)sulfonyl]carbamoyl}-5,16-dioxo-1,1′,2′,5,6,7,8,9,10,11,13a,14,14a,15,16,16a-hexadecahydrospiro[cyclopropa[e]pyrrolo[1,2-a][1,4]diazacyclopentadecine-2,3′-pyrano[2,3-c]quinolin]-6-yl]carbamate], the EC50 in test [1] (K+ salt) is 47 nM. Further, the IC50 in test [2] (K+ salt) came to 0.348 nM.
`CCOC(=O)N[C@H]1CCCCC/C=C\[C@@H]2C[C@@]2(C(=O)NS(=O)(=O)C2(C)CC2)NC(=O)[C@@H]2C[C@]3(CCc4c(c(C(F)F)nc5ccccc45)O3)CN2C1=O` [Example 329, ethyl [(2R,6S,12Z,13aS,14aR,16aS)-5′-(difluoromethyl)-14a-{[(1-methylcyclopropyl)sulfonyl]carbamoyl}-5,16-dioxo-1,1′,2′,5,6,7,8,9,10,11,13a,14,14a,15,16,16a-hexadecahydrospiro[cyclopropa[e]pyrrolo[1,2-a][1,4]diazacyclopentadecine-2,3′-pyrano[2,3-c]quinolin]-6-yl]carbamate]: the EC50 in test [1] worked out at 12.2 nM. 0.032 nM corresponded to half-maximal inhibition in test [2] (IC50).
In the case of `CC(C)(C)OC(=O)N[C@H]1CCCCC/C=C\[C@@H]2C[C@@]2(C(=O)NS(=O)(=O)C2(C)CC2)NC(=O)[C@@H]2C[C@]3(CCc4c(c(C(F)F)nc5ccc(Cl)cc45)O3)CN2C1=O` [Example 331, tert-butyl [(2R,6S,12Z,13aS,14aR,16aS)-9′-chloro-5′-(difluoromethyl)-14a-{[(1-methylcyclopropyl)sulfonyl]carbamoyl}-5,16-dioxo-1,1′,2′,5,6,7,8,9,10,11,13a,14,14a,15,16,16a-hexadecahydrospiro[cyclopropa[e]pyrrolo[1,2-a][1,4]diazacyclopentadecine-2,3′-pyrano[2,3-c]quinolin]-6-yl]carbamate], the EC50 in test [1] was determined as 6.71 nM. In test [2], this compound showed an IC50 of 0.01 nM.
In the same order, the values of `Cc1nc2ccc(C3CC3)cc2c2c1O[C@]1(CC2)C[C@H]2C(=O)N[C@]3(C(=O)NS(=O)(=O)C4(C)CC4)C[C@H]3/C=C\CCCCC[C@H](NC(=O)OC(C)(C)C)C(=O)N2C1` [Example 332, tert-butyl [(2R,6S,12Z,13aS,14aR,16aS)-9′-cyclopropyl-5′-methyl-14a-{[(1-methylcyclopropyl)sulfonyl]carbamoyl}-5,16-dioxo-1,1′,2′,5,6,7,8,9,10,11,13a,14,14a,15,16,16a-hexadecahydrospiro[cyclopropa[e]pyrrolo[1,2-a][1,4]diazacyclopentadecine-2,3′-pyrano[2,3-c]quinolin]-6-yl]carbamate] are 2.69 nM and 0.017 nM.
For the compound `Cc1nc2ccc(Cl)cc2c2c1O[C@]1(CC2)C[C@H]2C(=O)N[C@]3(C(=O)NS(=O)(=O)C4(C)CC4)C[C@H]3/C=C\CCCCC[C@H](NC(=O)OC(C)(C)C(F)(F)F)C(=O)N2C1` [Example 333, 1,1,1-trifluoro-2-methylpropan-2-yl [(2R,6S,12Z,13aS,14aR,16aS)-9′-chloro-5′-methyl-14a-{[(1-methylcyclopropyl)sulfonyl]carbamoyl}-5,16-dioxo-1,1′,2′,5,6,7,8,9,10,11,13a,14,14a,15,16,16a-hexadecahydrospiro[cyclopropa[e]pyrrolo[1,2-a][1,4]diazacyclopentadecine-2,3′-pyrano[2,3-c]quinolin]-6-yl]carbamate], the EC50 in test [1] amounted to 10.3 nM. This compound came in with a concentration for half-maximal inhibition (IC50) in test [2] of 0.01 nM.
With `CC(C)(OC(=O)N[C@H]1CCCCC/C=C\[C@@H]2C[C@@]2(C(=O)NS(=O)(=O)C2(C)CC2)NC(=O)[C@@H]2C[C@]3(CCc4c(c(C(F)F)nc5ccc(Cl)cc45)O3)CN2C1=O)C(F)(F)F` [Example 334, 1,1,1-trifluoro-2-methylpropan-2-yl [(2R,6S,12Z,13aS,14aR,16aS)-9′-chloro-5′-(difluoromethyl)-14a-{[(1-methylcyclopropyl)sulfonyl]carbamoyl}-5,16-dioxo-1,1′,2′,5,6,7,8,9,10,11,13a,14,14a,15,16,16a-hexadecahydrospiro[cyclopropa[e]pyrrolo[1,2-a][1,4]diazacyclopentadecine-2,3′-pyrano[2,3-c]quinolin]-6-yl]carbamate], the EC50 in test [1] was determined as 5.59 nM. In addition, in test [2], the IC50 is 0.019 nM.
Turning to `CCc1nc2ccc(OC)cc2c2c1O[C@]1(CC2)C[C@H]2C(=O)N[C@]3(C(=O)NS(=O)(=O)C4(C)CC4)C[C@H]3/C=C\CCCCC[C@H](NC(=O)OC(C)(C)C(F)(F)F)C(=O)N2C1` [Example 335, 1,1,1-trifluoro-2-methylpropan-2-yl [(2R,6S,12Z,13aS,14aR,16aS)-5′-ethyl-9′-methoxy-14a-{[(1-methylcyclopropyl)sulfonyl]carbamoyl}-5,16-dioxo-1,1′,2′,5,6,7,8,9,10,11,13a,14,14a,15,16,16a-hexadecahydrospiro[cyclopropa[e]pyrrolo[1,2-a][1,4]diazacyclopentadecine-2,3′-pyrano[2,3-c]quinolin]-6-yl]carbamate], in test [1], the EC50 turned out to be 2.6 nM. This compound also yielded an IC50 in test [2] of 0.017 nM.
With `CCc1nc2ccc(OC)cc2c2c1O[C@]1(CC2)C[C@H]2C(=O)N[C@]3(C(=O)NS(=O)(=O)C4(C)CC4)C[C@H]3/C=C\CCCCC[C@H](NC(=O)OC3CCCC3)C(=O)N2C1` [Example 336, cyclopentyl [(2R,6S,12Z,13aS,14aR,16aS)-5′-ethyl-9′-methoxy-14a-{[(1-methylcyclopropyl)sulfonyl]carbamoyl}-5,16-dioxo-1,1′,2′,5,6,7,8,9,10,11,13a,14,14a,15,16,16a-hexadecahydrospiro[cyclopropa[e]pyrrolo[1,2-a][1,4]diazacyclopentadecine-2,3′-pyrano[2,3-c]quinolin]-6-yl]carbamate], the EC50 in test [1] was 3.46 nM. Also, the IC50 in test [2] is 0.008 nM.
For the compound `CCc1nc2ccc(OC)cc2c2c1O[C@]1(CC2)C[C@H]2C(=O)N[C@]3(C(=O)NS(=O)(=O)C4(C)CC4)C[C@H]3/C=C\CCCCC[C@H](NC(=O)OCC(C)C)C(=O)N2C1` [Example 337, 2-methylpropyl [(2R,6S,12Z,13aS,14aR,16aS)-5′-ethyl-9′-methoxy-14a-{[(1-methylcyclopropyl)sulfonyl]carbamoyl}-5,16-dioxo-1,1′,2′,5,6,7,8,9,10,11,13a,14,14a,15,16,16a-hexadecahydrospiro[cyclopropa[e]pyrrolo[1,2-a][1,4]diazacyclopentadecine-2,3′-pyrano[2,3-c]quinolin]-6-yl]carbamate], in test [1], the EC50 was determined as 2.37 nM. In test [2], this compound returned an IC50 of 0.009 nM.
Taken in the same sequence, the figures for `CCc1nc2ccc(OC)cc2c2c1O[C@]1(CC2)C[C@H]2C(=O)N[C@]3(C(=O)NS(=O)(=O)C4(C)CC4)C[C@H]3/C=C\CCCCC[C@H](NC(=O)OCC(C)(C)C)C(=O)N2C1` [Example 338, 2,2-dimethylpropyl [(2R,6S,12Z,13aS,14aR,16aS)-5′-ethyl-9′-methoxy-14a-{[(1-methylcyclopropyl)sulfonyl]carbamoyl}-5,16-dioxo-1,1′,2′,5,6,7,8,9,10,11,13a,14,14a,15,16,16a-hexadecahydrospiro[cyclopropa[e]pyrrolo[1,2-a][1,4]diazacyclopentadecine-2,3′-pyrano[2,3-c]quinolin]-6-yl]carbamate] were 1.53 nM and 0.009 nM.
As to `Cc1nc2cc(F)ccc2c2c1O[C@]1(CC2)C[C@H]2C(=O)N[C@]3(C(=O)NS(=O)(=O)C4(C)CC4)C[C@H]3/C=C\CCCCC[C@H](NC(=O)OCC(C)(C)C)C(=O)N2C1` [Example 339, 2,2-dimethylpropyl [(2R,6S,12Z,13aS,14aR,16aS)-8′-fluoro-5′-methyl-14a-{[(1-methylcyclopropyl)sulfonyl]carbamoyl}-5,16-dioxo-1,1′,2′,5,6,7,8,9,10,11,13a,14,14a,15,16,16a-hexadecahydrospiro[cyclopropa[e]pyrrolo[1,2-a][1,4]diazacyclopentadecine-2,3′-pyrano[2,3-c]quinolin]-6-yl]carbamate], in test [1], the EC50 came out at 1.92 nM. The compound also yielded a 50% inhibitory concentration (IC50) in test [2] of 0.019 nM.
